The record followed here is patent publication US11230541B2, “Heterocyclic compound” (Takeda Pharmaceutical Company Limited, priority 2017, dated 2022).

Where a name gives a salt, the structure may show the parent alone.

T1 sequence (Q13224 27-1484, other chains not shown): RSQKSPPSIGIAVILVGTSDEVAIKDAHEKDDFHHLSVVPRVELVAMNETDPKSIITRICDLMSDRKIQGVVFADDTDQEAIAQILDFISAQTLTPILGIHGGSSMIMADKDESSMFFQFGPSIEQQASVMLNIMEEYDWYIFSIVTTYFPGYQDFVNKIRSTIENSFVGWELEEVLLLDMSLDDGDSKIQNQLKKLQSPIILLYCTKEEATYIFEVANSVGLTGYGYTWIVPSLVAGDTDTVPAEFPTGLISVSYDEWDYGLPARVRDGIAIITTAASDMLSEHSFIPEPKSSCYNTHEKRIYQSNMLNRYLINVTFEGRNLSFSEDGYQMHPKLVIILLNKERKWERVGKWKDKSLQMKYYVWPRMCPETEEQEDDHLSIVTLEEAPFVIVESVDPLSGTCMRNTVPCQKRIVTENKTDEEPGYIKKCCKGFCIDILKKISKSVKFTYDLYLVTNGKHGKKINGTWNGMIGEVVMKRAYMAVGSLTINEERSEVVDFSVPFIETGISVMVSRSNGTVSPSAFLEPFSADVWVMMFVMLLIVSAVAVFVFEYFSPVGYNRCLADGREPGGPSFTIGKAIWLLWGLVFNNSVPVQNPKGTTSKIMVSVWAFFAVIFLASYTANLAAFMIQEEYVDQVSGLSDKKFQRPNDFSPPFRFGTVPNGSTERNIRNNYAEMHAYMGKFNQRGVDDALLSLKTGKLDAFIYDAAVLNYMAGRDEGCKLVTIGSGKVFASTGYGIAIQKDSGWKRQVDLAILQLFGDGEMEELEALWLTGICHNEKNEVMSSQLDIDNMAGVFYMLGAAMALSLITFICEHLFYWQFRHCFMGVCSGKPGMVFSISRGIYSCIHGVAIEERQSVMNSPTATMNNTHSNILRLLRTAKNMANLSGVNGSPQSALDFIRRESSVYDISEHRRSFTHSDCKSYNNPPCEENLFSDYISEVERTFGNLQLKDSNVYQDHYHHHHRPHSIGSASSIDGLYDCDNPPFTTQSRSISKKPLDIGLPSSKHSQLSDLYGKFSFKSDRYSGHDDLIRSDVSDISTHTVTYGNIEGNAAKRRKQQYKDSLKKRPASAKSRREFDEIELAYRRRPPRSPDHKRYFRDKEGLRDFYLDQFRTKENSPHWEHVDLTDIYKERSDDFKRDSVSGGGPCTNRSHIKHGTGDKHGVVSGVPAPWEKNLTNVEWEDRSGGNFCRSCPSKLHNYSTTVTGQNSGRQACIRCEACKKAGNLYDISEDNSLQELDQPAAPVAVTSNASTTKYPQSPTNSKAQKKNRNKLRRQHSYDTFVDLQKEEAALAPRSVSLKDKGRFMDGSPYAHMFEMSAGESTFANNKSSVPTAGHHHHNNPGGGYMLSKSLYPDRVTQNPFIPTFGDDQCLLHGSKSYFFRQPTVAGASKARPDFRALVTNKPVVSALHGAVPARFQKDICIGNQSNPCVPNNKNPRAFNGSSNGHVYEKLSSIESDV

This experiment concerns the target T1, NMDA receptor composed of four subunits including 2 sets of heterodimers of NR1 and NR2B (Homo sapiens, UniProt Q13224).
T1 construct: host or cells: HEK293 (tetracycline-induced expression)
The experiment in a line: NR2B Ca2+ influx assay (FLIPR, Fluo-4) in HEK293 cells expressing human GRIN1 and GRIN2B. It is filed as cell-based. The settings on record: HEK293, 10 μM final compound concentration, glutamic acid/glycine-induced Ca2+ influx, read-out: inhibitory rate (10 μM compound concentration). The gist of the method:
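Inhibition rate was calculated from 5-min cumulative Fluo-4 signal (FLIPR, 3-s reads), using agonist-free buffer wells as 100% inhibition. Compound, 10 μM final, was applied 15 min before adding buffer with 30 μM glutamic acid and glycine to HEK293 cells with tetracycline-induced human NR1/NR2B, in HEPES pH 7.2 with 1.8 mM CaCl2.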
In the case of `CCc1ccc2ncn(C)c2c1CNC(=O)c1ccc(OC)c(F)c1` [Example 130, N-((6-ethyl-1-methyl-1H-benzimidazol-7-yl)methyl)-3-fluoro-4-methoxybenzamide], the inhibition at 10 µM is 91%. With `CCc1ccc2ncn(C)c2c1CNC(=O)c1cc(F)c(OC(F)F)c(F)c1` [Example 131, 4-(difluoromethoxy)-N-((6-ethyl-1-methyl-1H-benzimidazol-7-yl)methyl)-3,5-difluorobenzamide], the inhibition at 10 µM turned out to be 93%. Next, `CCc1ccc2ncn(C)c2c1CNC(=O)c1csc(C(F)F)c1` [Example 132, 5-(difluoromethyl)-N-((6-ethyl-1-methyl-1H-benzimidazol-7-yl)methyl)thiophene-3-carboxamide]: 90%; `CCc1ccc2ncn(C)c2c1CNC(=O)c1ccc(C(F)F)cc1` [Example 133, 4-(difluoromethyl)-N-((6-ethyl-1-methyl-1H-benzimidazol-7-yl)methyl)benzamide]: 91%; `Cc1ccc2ncn(C)c2c1CNC(=O)c1cnc(OC(F)F)c(F)c1` [Example 134, 6-(Difluoromethoxy)-N-((1,6-dimethyl-1H-benzimidazol-7-yl)methyl)-5-fluoronicotinamide]: 90%.

Turning to `Cc1ccc2ncn(C)c2c1CNC(=O)c1ccc(OC(F)F)cc1` [Example 135, 4-(difluoromethoxy)-N-((1,6-dimethyl-1H-benzimidazol-7-yl)methyl)benzamide], the inhibition at 10 µM was determined as 90%.

On to `Cc1ccc2ncn(C)c2c1CNC(=O)c1ccc(C(F)F)c(F)c1` [Example 136, 4-(difluoromethyl)-N-((1,6-dimethyl-1H-benzimidazol-7-yl)methyl)-3-fluorobenzamide], for which the inhibition at 10 µM came out at 83%.

With `Cc1ccc2ncn(C)c2c1CNC(=O)c1ccc(C(F)F)s1` [Example 137, 5-(difluoromethyl) -N-((1,6-dimethyl-1H-benzimidazol-7-yl)methyl)thiophene-2-carboxamide], the inhibition at 10 µM turned out to be 72%. The result for `Cc1ccc2ncn(C)c2c1CNC(=O)c1ccc(OC(F)(F)F)nc1` [Example 138, N-((1,6-dimethyl-1H-benzimidazol-7-yl)methyl)-6-(trifluoromethoxy)-nicotinamide] reads 88%; that for `COc1ccc2ncn(C)c2c1CNC(=O)c1csc(C(F)(F)F)c1` [Example 139, N-((6-methoxy-1-methyl-1H-benzimidazol-7-yl)methyl)-5-(trifluoromethyl)thiophene-3-carboxamide], 91%.

Take `CCOc1ccc2ncn(C)c2c1CNC(=O)c1ccc(C(F)F)cc1` [Example 140, 4-(difluoromethyl)-N-((6-ethoxy-1-methyl-1H-benzimidazol-7-yl)methyl)benzamide]: the inhibition at 10 µM worked out at 90%. Next, `CCOc1ccc2ncn(C)c2c1CNC(=O)c1ccc(C(F)F)c(F)c1` [Example 141, 4-(difluoromethyl)-N-((6-ethoxy-1-methyl-1H-benzimidazol-7-yl)methyl)-3-fluorobenzamide]: 90%; `Cc1ccc2ncn(C)c2c1CNC(=O)c1csc(C(F)F)c1` [Example 142, 5-(difluoromethyl)-N-((1,6-dimethyl-1H-benzimidazol-7-yl)methyl)thiophene-3-carboxamide]: 85%; `CCc1ccc2ncn(C)c2c1CNC(=O)c1cnc(OC(F)F)c(F)c1` [Example 143, 6-(difluoromethoxy)-N-((6-ethyl-1-methyl-1H-benzimidazol-7-yl)methyl)-5-fluoronicotinamide]: 91%. Next, `Cc1ccc2ncn(C)c2c1CNC(=O)c1csc(C2CC2)c1` [Example 144, 5-cyclopropyl-N-((1,6-dimethyl-1H-benzimidazol-7-yl)methyl)thiophene-3-carboxamide]: 90%. Next, `CCc1ccc2ncn(C)c2c1CNC(=O)c1ccc(OC)cc1` [Example 145, N-((6-ethyl-1-methyl-1H-benzimidazol-7-yl)methyl)-4-methoxybenzamide]: 92%; `CCc1ccc2ncn(C)c2c1CNC(=O)c1ccc(C(F)F)c(F)c1` [Example 146, 4-(difluoromethyl)-N-((6-ethyl-1-methyl-1H-benzimidazol-7-yl)methyl)-3-fluorobenzamide]: 90%; `CCc1ccc2ncn(C)c2c1CNC(=O)c1csc(Cl)c1` [Example 147, 5-chloro-N-((6-ethyl-1-methyl-1H-benzimidazol-7-yl)methyl)thiophene-3-carboxamide]: 92%.

On to `CCc1ccc2ncn(C)c2c1CNC(=O)c1ccc(OC(F)F)cc1` [Example 148, 4-(difluoromethoxy)-N-((6-ethyl-1-methyl-1H-benzimidazol-7-yl)methyl)benzamide], for which the inhibition at 10 µM turned out to be 91%.

On to `CCc1ccc2ncn(C)c2c1CNC(=O)c1ccc(OC(F)(F)F)nc1` [Example 149, N-((6-ethyl-1-methyl-1H-benzimidazol-7-yl)methyl)-6-(trifluoromethoxy)-nicotinamide], for which the inhibition at 10 µM stood at 93%. Next, `CCn1cnc2ccc(OC)c(CNC(=O)c3cnc(OC)c(F)c3)c21` [Example 150, N-((1-ethyl-6-methoxy-1H-benzimidazol-7-yl)methyl)-5-fluoro-6-methoxynicotinamide]: 60%. Turning to `CCn1cnc2ccc(OC)c(CNC(=O)c3cc(F)c(OC)c(F)c3)c21` [Example 151, N-((1-ethyl-6-methoxy-1H-benzimidazol-7-yl)methyl)-3,5-difluoro-4-methoxybenzamide], the inhibition at 10 µM was found to be 83%. The result for `Cc1ccc2ncn(C)c2c1CNC(=O)c1ccc(OC(F)(F)F)cc1` [Example 152, N-((1,6-dimethyl-1H-benzimidazol-7-yl)methyl)-4-(trifluoromethoxy)benzamide] reads 91%. The result for `O=C(NCc1c(C2CC2)ccc2[nH]ncc12)c1cc(F)c(OC(F)F)c(F)c1` [Example 153, N-((5-cyclopropyl-1H-indazol-4-yl)methyl)-4-(difluoromethoxy)-3,5-difluorobenzamide] reads 90%; that for `O=C(NCc1c(C2CC2)ccc2[nH]ncc12)c1csc(C(F)F)c1` [Example 154, N-((5-cyclopropyl-1H-indazol-4-yl)methyl)-5-(difluoromethyl)-thiophene-3-carboxamide], 91%; that for `O=C(NCc1c(C2CC2)ccc2[nH]ncc12)c1ccc(C(F)F)s1` [Example 155, N-((5-cyclopropyl-1H-indazol-4-yl)methyl)-5-(difluoromethyl)-thiophene-2-carboxamide], 92%. `Cc1ccc2ncn(C)c2c1CNC(=O)c1csc(Cl)c1` [Example 156, 5-chloro-N-((1,6-dimethyl-1H-benzimidazol-7-yl)methyl)thiophene-3-carboxamide]: the inhibition at 10 µM came to 76%. Take `Cc1ccc2ncn(C)c2c1CNC(=O)c1ccc(C(F)F)cc1` [Example 157, 4-(difluoromethyl)-N-((1,6-dimethyl-1H-benzimidazol-7-yl)methyl)benzamide]: the inhibition at 10 µM was determined as 85%.

On to `Cc1ccc2ncn(C)c2c1CNC(=O)c1cc(F)c(OC(F)F)c(F)c1` [Example 158, 4-(difluoromethoxy)-N-((1,6-dimethyl-1H-benzimidazol-7-yl)methyl)-3,5-difluorobenzamide], for which the inhibition at 10 µM is 89%. Next, `Cc1ccc2ncn(C)c2c1CNC(=O)c1ccc(OC(F)F)nc1` [Example 159, 6-(difluoromethoxy)-N-((1,6-dimethyl-1H-benzimidazol-7-yl)methyl)nicotinamide]: 86%; `COc1c(F)cc(C(=O)NCc2cccc3ncn(C)c23)cc1F` [Example 160, 3,5-difluoro-4-methoxy-N-((1-methyl-1H-benzimidazol-7-yl)methyl)benzamide]: 65%; `COc1ccc2ncn(C)c2c1CNC(=O)c1cc(F)c(OC(F)F)c(F)c1` [Example 161, 4-(difluoromethoxy)-3,5-difluoro-N-((6-methoxy-1-methyl-1H-benzimidazol-7-yl)methyl)benzamide]: 92%. With `COc1ccc2ncn(C)c2c1CNC(=O)c1ccc(C(F)(F)F)s1` [Example 162, N-((6-methoxy-1-methyl-1H-benzimidazol-7-yl)methyl)-5-(trifluoromethyl)-thiophene-2-carboxamide hydrochloride], the inhibition at 10 µM was determined as 92%. Next, `Cc1ccc2ncn(C)c2c1CNC(=O)c1csc(C(F)(F)F)c1` [Example 163, N-((1,6-dimethyl-1H-benzimidazol-7-yl)methyl)-5-(trifluoromethyl)-thiophene-3-carboxamide]: 89%; `CCc1ccc2ncn(C)c2c1CNC(=O)c1ccc(OC(F)F)nc1` [Example 164, 6-(difluoromethoxy)-N-((6-ethyl-1-methyl-1H-benzimidazol-7-yl)methyl)nicotinamide]: 92%.

As for `COc1ncc(C(=O)NCc2c(C3CC3)ccc3[nH]nnc23)cc1F` [Example 165, N-((5-cyclopropyl-1H-benzotriazol-4-yl)methyl)-5-fluoro-6-methoxynicotinamide], the inhibition at 10 µM stood at 91%. The result for `O=C(NCc1cccc2[nH]ncc12)c1csc(Cl)c1` [Example 166, 5-chloro-N-(1H-indazol-4-ylmethyl)thiophene-3-carboxamide] reads 56%; that for `O=C(NCc1cccc2[nH]ncc12)c1ccc(C(F)(F)F)s1` [Example 167, N-(1H-indazol-4-ylmethyl)-5-(trifluoromethyl)-thiophene-2-carboxamide], 58%; that for `O=C(NCc1cccc2[nH]ncc12)c1cc(Cl)c(Cl)s1` [Example 168, 4,5-dichloro-N-(1H-indazol-4-ylmethyl)thiophene-2-carboxamide], 90%.
